Results taken from patent US10689381B2 (priority 2017, dated 2020).

How the values were obtained:
L1210 = assay: cells; format: cell-based, mouse; settings: Table 2
Description: (§1) A population of cells (>1×10^6 cells/mL as determined with a hemocytometer) was diluted with Dulbecco's Modified Eagle Medium (DMEM, Gibco) containing 10% fetal bovine serum (FBS, Gibco) to give a final concentration of 30,000 cells/mL. To each well of a 96-well plate (Corning® Costar®) was added 100 μL of the cell media solution with a multichannel pipet.
(§2) The test compounds were then added to the plate as follows: test compounds were diluted in DMSO to a concentration of 1 mM. 10-Fold serial dilutions in DMSO were next performed on a separate 96-well plate. Fresh culture media (100 μL) was added to each well of cells resulting in 200 μL of medium per well followed by 2 μL of each test agent. Compounds were tested in duplicate (n=2-8 times) at six concentrations between 0-1000 nM or 0-10000 nM. Following the addition of compound, cultures were incubated for an additional 72 hours.
(§3) The plates were incubated at 37° C. for 5 minutes (L1210) or 15 min (HCT116 and HCT116/VM46).

HCT116 = assay: cells; format: cell-based, human; settings: for IC50: Table 2, read-out: IC50 HCT116; for potency relative to vinblastine (more potent): vinblastine-sensitive cell lines
Description: as §1, §2, §3

| Compound | IC50 (L1210) | IC50 (HCT116) | potency relative to vinblastine (more potent) (HCT116) |
| --- | --- | --- | --- |
| CC[C@]1(NC(=O)c2ccccc2F)C[C@H]2CN(CCc3c([nH]c4ccccc34)[C@@](C(=O)OC)(c3cc4c(cc3OC)N(C)[C@H]3[C@@](O)(C(=O)OC)[C@H](OC(C)=O)[C@]5(CC)C=CCN6CC[C@]43[C@@H]65)C2)C1 [Compound 46] | 8.4 nM | 7.7 nM |  |
| CC[C@]1(NC(=O)c2ccc(Cl)cc2)C[C@H]2CN(CCc3c([nH]c4ccccc34)[C@@](C(=O)OC)(c3cc4c(cc3OC)N(C)[C@H]3[C@@](O)(C(=O)OC)[C@H](OC(C)=O)[C@]5(CC)C=CCN6CC[C@]43[C@@H]65)C2)C1 [Compound 47] | 3.1 nM | 3.2 nM |  |
| CC[C@]1(NC(=O)c2cccc(Cl)c2)C[C@H]2CN(CCc3c([nH]c4ccccc34)[C@@](C(=O)OC)(c3cc4c(cc3OC)N(C)[C@H]3[C@@](O)(C(=O)OC)[C@H](OC(C)=O)[C@]5(CC)C=CCN6CC[C@]43[C@@H]65)C2)C1 [Compound 48] | 4.2 nM | 2.7 nM |  |
| CC[C@]1(NC(=O)c2ccccc2Cl)C[C@H]2CN(CCc3c([nH]c4ccccc34)[C@@](C(=O)OC)(c3cc4c(cc3OC)N(C)[C@H]3[C@@](O)(C(=O)OC)[C@H](OC(C)=O)[C@]5(CC)C=CCN6CC[C@]43[C@@H]65)C2)C1 [Compound 49] | 50 nM | 55 nM |  |
| CC[C@]1(NC(=O)c2ccc(Cl)c(Cl)c2)C[C@H]2CN(CCc3c([nH]c4ccccc34)[C@@](C(=O)OC)(c3cc4c(cc3OC)N(C)[C@H]3[C@@](O)(C(=O)OC)[C@H](OC(C)=O)[C@]5(CC)C=CCN6CC[C@]43[C@@H]65)C2)C1 [Compound 50] | 8.5 nM | 8.7 nM |  |
| CC[C@]1(NC(=O)c2ccc(Br)cc2)C[C@H]2CN(CCc3c([nH]c4ccccc34)[C@@](C(=O)OC)(c3cc4c(cc3OC)N(C)[C@H]3[C@@](O)(C(=O)OC)[C@H](OC(C)=O)[C@]5(CC)C=CCN6CC[C@]43[C@@H]65)C2)C1 [Compound 51] | 2.7 nM | 1.4 nM |  |
| CC[C@]1(NC(=O)c2cccc(Br)c2)C[C@H]2CN(CCc3c([nH]c4ccccc34)[C@@](C(=O)OC)(c3cc4c(cc3OC)N(C)[C@H]3[C@@](O)(C(=O)OC)[C@H](OC(C)=O)[C@]5(CC)C=CCN6CC[C@]43[C@@H]65)C2)C1 [Compound 52] | 5 nM | 6.3 nM |  |
| CCC1(NC(=O)c2ccc(Br)c(Br)c2)CC2CN(CCc3c([nH]c4ccccc34)C(C(=O)OC)(c3cc4c(cc3OC)N(C)C3C(O)(C(=O)OC)C(OC(C)=O)C5(CC)C=CCN6CCC43C65)C2)C1 (stereo not shown) [Compound 53] | 60 nM | 40 nM |  |
| CCC1(NC(=O)c2ccc(C#N)c(C)c2)CC2CN(CCc3c([nH]c4ccccc34)C(C(=O)OC)(c3cc4c(cc3OC)N(C)C3C(O)(C(=O)OC)C(OC(C)=O)C5(CC)C=CCN6CCC43C65)C2)C1 (stereo not shown) [Compound 55] | 4.8 nM | 6.2 nM |  |
| CCC1(NC(=O)c2ccc([N+](=O)[O-])cc2)CC2CN(CCc3c([nH]c4ccccc34)C(C(=O)OC)(c3cc4c(cc3OC)N(C)C3C(O)(C(=O)OC)C(OC(C)=O)C5(CC)C=CCN6CCC43C65)C2)C1 (stereo not shown) [Compound 56] | 6.1 nM | 6.1 nM |  |
| CC[C@]1(NC(=O)c2ccc(N)cc2)C[C@H]2CN(CCc3c([nH]c4ccccc34)[C@@](C(=O)OC)(c3cc4c(cc3OC)N(C)[C@H]3[C@@](O)(C(=O)OC)[C@H](OC(C)=O)[C@]5(CC)C=CCN6CC[C@]43[C@@H]65)C2)C1 [Compound 57] | 0.4 nM | 0.4 nM |  |
| CCC1(NC(=O)c2ccc(NC(=O)OC)cc2)CC2CN(CCc3c([nH]c4ccccc34)C(C(=O)OC)(c3cc4c(cc3OC)N(C)C3C(O)(C(=O)OC)C(OC(C)=O)C5(CC)C=CCN6CCC43C65)C2)C1 (stereo not shown) [Compound 59] | 1.5 nM | 0.8 nM |  |
| CC[C@]1(NC(=O)c2ccc(NC)cc2)C[C@H]2CN(CCc3c([nH]c4ccccc34)[C@@](C(=O)OC)(c3cc4c(cc3OC)N(C)[C@H]3[C@@](O)(C(=O)OC)[C@H](OC(C)=O)[C@]5(CC)C=CCN6CC[C@]43[C@@H]65)C2)C1 [Compound 62] | 0.38 nM | 0.33 nM |  |
| CC[C@]1(NC(=O)c2ccc(N(C)C(=O)OC(C)(C)C)cc2)C[C@H]2CN(CCc3c([nH]c4ccccc34)[C@@](C(=O)OC)(c3cc4c(cc3OC)N(C)[C@H]3[C@@](O)(C(=O)OC)[C@H](OC(C)=O)[C@]5(CC)C=CCN6CC[C@]43[C@@H]65)C2)C1 [Compound 63] | 4.1 nM | 3.9 nM |  |
| CCC1(NC(=O)c2ccc(CN)cc2)CC2CN(CCc3c([nH]c4ccccc34)C(C(=O)OC)(c3cc4c(cc3OC)N(C)C3C(O)(C(=O)OC)C(OC(C)=O)C5(CC)C=CCN6CCC43C65)C2)C1 (stereo not shown) [Compound 65] | 25 nM | 3.5 nM |  |
| CC[C@]1(NC(=O)c2ccc(CNC(=O)OC(C)(C)C)cc2)C[C@H]2CN(CCc3c([nH]c4ccccc34)[C@@](C(=O)OC)(c3cc4c(cc3OC)N(C)[C@H]3[C@@](O)(C(=O)OC)[C@H](OC(C)=O)[C@]5(CC)C=CCN6CC[C@]43[C@@H]65)C2)C1 [Compound 66] | 0.76 nM | 0.7 nM |  |

| Compound | IC50 (L1210) | IC50 (HCT116) | potency relative to vinblastine (more potent) (HCT116) |
| --- | --- | --- | --- |
| CCC1(NC(=O)c2ccc(OC)cc2)CC2CN(CCc3c([nH]c4ccccc34)C(C(=O)OC)(c3cc4c(cc3OC)N(C)C3C(O)(C(=O)OC)C(OC(C)=O)C5(CC)C=CCN6CCC43C65)C2)C1 (stereo not shown) [Compound 67] | 0.25 nM | 0.3 nM |  |
| CCC1(NC(=O)c2cccc(OC)c2)CC2CN(CCc3c([nH]c4ccccc34)C(C(=O)OC)(c3cc4c(cc3OC)N(C)C3C(O)(C(=O)OC)C(OC(C)=O)C5(CC)C=CCN6CCC43C65)C2)C1 (stereo not shown) [Compound 68] | 0.6 nM | 0.8 nM |  |
| CCC1(NC(=O)c2ccccc2OC)CC2CN(CCc3c([nH]c4ccccc34)C(C(=O)OC)(c3cc4c(cc3OC)N(C)C3C(O)(C(=O)OC)C(OC(C)=O)C5(CC)C=CCN6CCC43C65)C2)C1 (stereo not shown) [Compound 69] | 30 nM | 10 nM |  |
| CCC1(NC(=O)c2ccc(OC)c(OC)c2)CC2CN(CCc3c([nH]c4ccccc34)C(C(=O)OC)(c3cc4c(cc3OC)N(C)C3C(O)(C(=O)OC)C(OC(C)=O)C5(CC)C=CCN6CCC43C65)C2)C1 (stereo not shown) [Compound 70] | 0.06 nM | 0.07 nM |  |
| CC[C@]1(NC(=O)c2cc(OC)c(OC)c(OC)c2)C[C@H]2CN(CCc3c([nH]c4ccccc34)[C@@](C(=O)OC)(c3cc4c(cc3OC)N(C)[C@H]3[C@@](O)(C(=O)OC)[C@H](OC(C)=O)[C@]5(CC)C=CCN6CC[C@]43[C@@H]65)C2)C1 [Compound 71] | 0.09 nM | 0.1 nM |  |
| CCOc1ccc(C(=O)NC2(CC)CC3CN(CCc4c([nH]c5ccccc45)C(C(=O)OC)(c4cc5c(cc4OC)N(C)C4C(O)(C(=O)OC)C(OC(C)=O)C6(CC)C=CCN7CCC54C76)C3)C2)cc1 (stereo not shown) [Compound 72] | 0.6 nM | 0.6 nM | 10 fold |
| CCOc1ccc(C(=O)NC2(CC)CC3CN(CCc4c([nH]c5ccccc45)C(C(=O)OC)(c4cc5c(cc4OC)N(C)C4C(O)(C(=O)OC)C(OC(C)=O)C6(CC)C=CCN7CCC54C76)C3)C2)cc1OCC (stereo not shown) [Compound 73] | 0.4 nM | 0.5 nM |  |
| CCC1(NC(=O)c2ccc(OC(C)C)cc2)CC2CN(CCc3c([nH]c4ccccc34)C(C(=O)OC)(c3cc4c(cc3OC)N(C)C3C(O)(C(=O)OC)C(OC(C)=O)C5(CC)C=CCN6CCC43C65)C2)C1 (stereo not shown) [Compound 74] | 0.7 nM | 0.8 nM | 10 fold |
| CC[C@]1(NC(=O)c2ccc(OC(C)(C)C)cc2)C[C@H]2CN(CCc3c([nH]c4ccccc34)[C@@](C(=O)OC)(c3cc4c(cc3OC)N(C)[C@H]3[C@@](O)(C(=O)OC)[C@H](OC(C)=O)[C@]5(CC)C=CCN6CC[C@]43[C@@H]65)C2)C1 [Compound 75] | 0.6 nM | 0.6 nM |  |
| CCC1(NC(=O)c2ccc(Oc3ccccc3)cc2)CC2CN(CCc3c([nH]c4ccccc34)C(C(=O)OC)(c3cc4c(cc3OC)N(C)C3C(O)(C(=O)OC)C(OC(C)=O)C5(CC)C=CCN6CCC43C65)C2)C1 (stereo not shown) [Compound 76] | 5.2 nM | 6.5 nM |  |
| CC[C@]1(NC(=O)c2ccc(OCc3ccccc3)cc2)C[C@H]2CN(CCc3c([nH]c4ccccc34)[C@@](C(=O)OC)(c3cc4c(cc3OC)N(C)[C@H]3[C@@](O)(C(=O)OC)[C@H](OC(C)=O)[C@]5(CC)C=CCN6CC[C@]43[C@@H]65)C2)C1 [Compound 77] | 5.4 nM | 5.7 nM |  |
| CCC1(NC(=O)c2ccc(OC(F)(F)F)cc2)CC2CN(CCc3c([nH]c4ccccc34)C(C(=O)OC)(c3cc4c(cc3OC)N(C)C3C(O)(C(=O)OC)C(OC(C)=O)C5(CC)C=CCN6CCC43C65)C2)C1 (stereo not shown) [Compound 78] | 5.9 nM | 4.4 nM |  |
| CCC1(NC(=O)c2cccc(OC(F)(F)F)c2)CC2CN(CCc3c([nH]c4ccccc34)C(C(=O)OC)(c3cc4c(cc3OC)N(C)C3C(O)(C(=O)OC)C(OC(C)=O)C5(CC)C=CCN6CCC43C65)C2)C1 (stereo not shown) [Compound 79] | 4.8 nM | 5.9 nM |  |
| CC[C@]1(NC(=O)c2ccccc2OC(F)(F)F)C[C@H]2CN(CCc3c([nH]c4ccccc34)[C@@](C(=O)OC)(c3cc4c(cc3OC)N(C)[C@H]3[C@@](O)(C(=O)OC)[C@H](OC(C)=O)[C@]5(CC)C=CCN6CC[C@]43[C@@H]65)C2)C1 [Compound 80] | 450 nM | 480 nM |  |
| CCC1(NC(=O)c2ccc(OC(F)F)cc2)CC2CN(CCc3c([nH]c4ccccc34)C(C(=O)OC)(c3cc4c(cc3OC)N(C)C3C(O)(C(=O)OC)C(OC(C)=O)C5(CC)C=CCN6CCC43C65)C2)C1 (stereo not shown) [Compound 81] | 5.9 nM | 1.7 nM |  |
